Literature values as cited in patent US20080260691A1 (priority 2004, published 2008).
Values belong to the compound of their own block, whether it stands above or below them.

Key:
[1] = in vivo
[2] = all animal species exposed
[3] = not given; remark: listed apart in the source

SMILES: N[C@@H](Cc1ccc(O)cc1)C(=O)O [Tyr]
- in vitro hydrolysis t½ rat hepatic microsomes: 5 min

SMILES: N[C@@H](CCC(=O)O)C(=O)O [Glu]
- in vitro hydrolysis t½ rat hepatic microsomes: 30 min

SMILES: NC(=O)c1ncn([C@@H]2O[C@H](CO)[C@@H](O)[C@H]2O)n1 [ribavirin]
- teratogenic and/or embryocidal effects [2]: Significant teratogenic and/or embryocidal effects
- total bioavailability, average ([3]; averages): 64%
- multiple-dose half-life ([3]; multiple-dose): 12 days
- portion of drug excreted in urine as intact drug or as metabolites ([3]; oral, within 72-80 hours): approx. 53%
- bioavailability (low and variable) ([3]; range): 33-69%
- portion of a single oral dose excreted in feces ([3]; single oral dose, within 72 hours): Approximately 15%

Other lines, results leading:

- in vitro hydrolysis t½ rat hepatic microsomes: 14 min
SMILES: NCCCC[C@H](N)C(=O)O [Lys]

- bioavailability [1]: 54%
SMILES: CC(C)[C@H](N)C(=O)OCCOCn1cnc2c(=O)[nH]c(N)nc21 [valacyclovir]

- in vitro hydrolysis t½ rat hepatic microsomes: 30 min
SMILES: N[C@@H](Cc1ccccc1)C(=O)O [Phe]

- bioavailability [1]: 15-30%
SMILES: Nc1nc2c(ncn2COCCO)c(=O)[nH]1 [acyclovir]
